Results reported in patent US5672604A, “1-phenylmethyl benzimidazole piperazine derivative” (Fabrica Espanola de Productos Quimicos y Farmaceuticos …, priority 1993, dated 1997).
Like-named read-outs stand apart in the source and are kept apart here.

Assays:
5HT3 receptor = molecular target: T1, 5HT3 receptor (Cavia porcellus, UniProt O70212); assay: Inhibition of 2-methyl-serotonin induced contraction of guinea pig ileum
T1 construct: Guinea pig ileum fragments; from tissue; host or cells: guinea pig ileum fragments
T1 sequence (O70212 20-490): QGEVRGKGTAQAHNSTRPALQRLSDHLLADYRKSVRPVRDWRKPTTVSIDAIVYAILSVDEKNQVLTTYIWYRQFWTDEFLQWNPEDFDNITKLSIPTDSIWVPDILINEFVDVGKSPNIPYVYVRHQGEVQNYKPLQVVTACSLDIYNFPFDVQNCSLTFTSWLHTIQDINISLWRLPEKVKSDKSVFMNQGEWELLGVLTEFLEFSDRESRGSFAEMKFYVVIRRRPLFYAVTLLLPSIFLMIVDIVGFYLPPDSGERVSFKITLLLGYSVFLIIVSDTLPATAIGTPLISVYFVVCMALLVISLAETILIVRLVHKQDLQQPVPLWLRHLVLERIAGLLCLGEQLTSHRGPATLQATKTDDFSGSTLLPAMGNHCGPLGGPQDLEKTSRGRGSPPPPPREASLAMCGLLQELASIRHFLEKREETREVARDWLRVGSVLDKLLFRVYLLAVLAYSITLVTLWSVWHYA
Description: b) Guinea pig ileum fragments were submerged in K-H solution at 37° C. pH 7.4, oxygenated with carbogen (95% O2 and 5% CO2) and with an effective preload of 1-2 g. They remained in a stabilization period for 45-60 minutes. and the physiological solution was replaced every 15 minutes. After this time, contractions were induced every 15 minutes, adding 2-methyl-serotonin (final conc.: 10 μmol/l). […] The inhibition percentages and CI50 were subsequently calculated (Table I).

serotonin 5HT3 receptor = assay: Inhibition of serotonin-induced Bezold-Jarisch reflex in anaesthetised rat; assay type: in vivo, Wistar rats; settings: i.v., 5 minutes before serotonin
Description: After the arterial pressure (A.P.) and cardiac frequency (C.F.) parameters were stabilised, bradycardia reflex was induced by i.v. injection (the different dose of the drug tested) of 80 μv/kg (1 ml/kg) of serotonin dissolved in sterile physiological serum. Ten minutes later and after taking CF and AP back to constant levels, the products claimed herein were injected i.v. and after a lapse of five minutes, i.v. injection of the serotonin creatinine sulphate complex was repeated, quantifying the inhibition of the Bezold-Jarisch reflex.

5HT3 = molecular target: T2, 5HT3 (Rattus norvegicus, UniProt P35563); assay: Bind 5HT3 cort-ento; assay type: binding; settings: read-out: Bind 5HT3 cort-ento pki (converted)
T2 construct: cort-ento; from tissue; host or cells: entorhinal cortex ('cort-ento')
T2 sequence (P35563 24-483): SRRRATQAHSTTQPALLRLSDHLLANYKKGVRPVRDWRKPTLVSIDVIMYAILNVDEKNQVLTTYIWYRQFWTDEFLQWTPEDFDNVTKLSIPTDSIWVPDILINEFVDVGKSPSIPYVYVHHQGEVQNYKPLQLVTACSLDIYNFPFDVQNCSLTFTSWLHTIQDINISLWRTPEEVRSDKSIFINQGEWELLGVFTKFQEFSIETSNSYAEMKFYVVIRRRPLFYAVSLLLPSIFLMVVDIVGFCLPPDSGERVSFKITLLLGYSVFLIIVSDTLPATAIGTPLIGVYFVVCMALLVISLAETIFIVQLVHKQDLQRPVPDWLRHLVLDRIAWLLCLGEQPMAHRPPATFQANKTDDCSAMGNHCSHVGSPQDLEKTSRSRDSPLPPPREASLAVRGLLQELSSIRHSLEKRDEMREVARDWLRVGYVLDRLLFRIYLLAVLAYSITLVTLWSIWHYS

[1] = guinea pig ileum, contraction by 2-methyl-serotonin 10 μmol/l, incubation 15 minutes, read-out: 2-me-5HT g.p. ileum CI50

| Compound | IC50 (5HT3 receptor; [1]) | further results |
| --- | --- | --- |
| Cc1ccc2c(c1)nc(N1CCNCC1)n2Cc1ccccc1 [Product 1, 5-methyl-1-phenylmethyl-2-piperazinyl-1H-benzimidazole] | 0.0283 µM |  |
| Clc1ccc2c(c1)nc(N1CCNCC1)n2Cc1ccccc1 [Product 2] |  | IC50 (5HT3 receptor): 0.0072 µM |
| O=[N+]([O-])c1ccc2c(c1)nc(N1CCNCC1)n2Cc1ccccc1 [Product 3] | 0.0105 µM | B-J reflex rat-anaesth. DE50 (serotonin 5HT3 receptor): 7.4 μg/kg iv; Ki (5HT3): 0.0398 µM |
| Oc1ccc2c(c1)nc(N1CCNCC1)n2Cc1ccccc1 [Product 5] | 0.116 µM |  |

Further lines, with some results ahead:

| IC50 (5HT3 receptor; [1]) | Compound | further results |
| --- | --- | --- |
| 0.00165 µM | Fc1ccc2c(c1)nc(N1CCNCC1)n2Cc1ccccc1 [Product 4] |  |
| 0.265 µM | Clc1cc2nc(N3CCNCC3)n(Cc3ccccc3)c2cc1Cl [Product 6] |  |
